Measured values: ChEMBL document CHEMBL1201862, “PubChem BioAssay data set” (2004)
Active and inactive are the calls of the source.

Columns and labels:
Galanin receptor type 3 = target: T1, Galanin receptor type 3 (Homo sapiens, UniProt O60755); test: Fluorescence-based cell-based primary high throughput dose response assay to identify antagonists of the Galanin Receptor 3 (GalR3).; format: functional
T1 sequence (O60755 whole entry): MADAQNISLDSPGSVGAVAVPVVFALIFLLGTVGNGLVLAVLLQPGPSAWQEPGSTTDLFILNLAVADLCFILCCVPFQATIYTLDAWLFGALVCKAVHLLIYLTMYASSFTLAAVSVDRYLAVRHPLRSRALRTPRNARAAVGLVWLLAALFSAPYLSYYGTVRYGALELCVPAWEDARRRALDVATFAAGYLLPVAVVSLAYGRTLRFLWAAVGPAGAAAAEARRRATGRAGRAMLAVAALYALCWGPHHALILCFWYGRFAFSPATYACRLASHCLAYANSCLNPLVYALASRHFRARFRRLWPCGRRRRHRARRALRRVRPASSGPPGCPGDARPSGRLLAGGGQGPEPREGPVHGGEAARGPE

cells [1] = format: functional, cell-based; conditions: HEK-CNG
[2] = blockers of HIV-1 envelope-mediated cell-cell fusion – cherry-pick, dose response (AID 652057); format: functional, cell-based
[3] = viability loss in CEM21 cells – cell-based, CellTiter-Glo luminescence, cherry-picked, cytotoxicity control for viral fusion inhibitor project, dose response (AID 652042); format: functional;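 note: potency for signal decrease meaning cytotoxicity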
[4] = blockers of HIV-1 ZM109 envelope-driven cell-cell fusion – HeLa effector, CEM target cells, luciferase, cherry-pick, dose response (AID 652058); format: functional, cell-based;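 note: luciferase signal from HIV-1 Env mediated cell-cell fusion of effector and target cells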
[5] = off-target signal loss in HeLa-CEM21 co-culture – HeLa F-luc CTL cells, cherry-picked, counter-screen for HIV-1 Env fusion inhibitor project, dose response (AID 652040); format: functional, cell-based;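 note: potency for signal decrease marking cytotoxic or nonspecific inhibition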
[6] = HIV-1 AD8 envelope cell-cell fusion blockers – cherry-pick, dose response (AID 652062); format: functional, cell-based;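 note: luciferase signal from cell-cell fusion driven by HIV-1 clade B AD8 Env; potency is for inhibitors of fusion seen as a drop in luminescence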
HeLa = test: viability loss in HeLa cells – cell-based, ATP luminescence, cherry-pick samples, cytotoxicity control, dose response (AID 687004); format: functional; conditions: Homo sapiens
[7] = target: SWI/SNF-related matrix-associated actin-dependent regulator of chromatin subfamily A member 2 (Homo sapiens, UniProt P51531); test: Luminescence-based cell-based high throughput dose response assay to identify activators of the function of SWI/SNF related, matrix associated, actin dependent regulator of chromatin, subfamily a, member 2 (SMARCA2, BRM).; format: functional
[8] = Counterscreen for activators of the function of SWI/SNF related, matrix associated, actin dependent regulator of chromatin, subfamily a, member 2 (SMARCA2, BRM): Luminescence-based cell-based high throughput dose response assay to identify non-selective compounds using the VP16 reporter assay.; format: functional
[9] = activation of miR-122 Renilla sensor silencing – cell-based, Huh7 psiCHECK-miR122, Renilla luciferase, cherry-picked, dose response (AID 651956); format: functional;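 note: huh7 hepatoma cells stably carrying a psiCHECK-2 miR-122 sensor plasmid; renilla luciferase signal reporting endogenous miR-122 activity after 48 h compound exposure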
[10] = general mammalian cell viability loss – inhibitor set, cherry-pick, set 2, cytotoxicity control for miR-122 modulator project, dose response (AID 720697); format: functional, cell-based
[11] = target: T2, Long-chain-fatty-acid--AMP ligase FadD28 (Mycobacterium tuberculosis, UniProt P9WQ59); test: Fluorescence polarization aasay to screen for inhibitors that compete for the binding of FadD28 to a bisubstrate Measured in Biochemical System Using Plate Reader - 2147-01_Inhibitor_Dose_CherryPick_Activity.; format: functional, Mycobacterium tuberculosis H37Rv
T2 sequence (P9WQ59 whole entry): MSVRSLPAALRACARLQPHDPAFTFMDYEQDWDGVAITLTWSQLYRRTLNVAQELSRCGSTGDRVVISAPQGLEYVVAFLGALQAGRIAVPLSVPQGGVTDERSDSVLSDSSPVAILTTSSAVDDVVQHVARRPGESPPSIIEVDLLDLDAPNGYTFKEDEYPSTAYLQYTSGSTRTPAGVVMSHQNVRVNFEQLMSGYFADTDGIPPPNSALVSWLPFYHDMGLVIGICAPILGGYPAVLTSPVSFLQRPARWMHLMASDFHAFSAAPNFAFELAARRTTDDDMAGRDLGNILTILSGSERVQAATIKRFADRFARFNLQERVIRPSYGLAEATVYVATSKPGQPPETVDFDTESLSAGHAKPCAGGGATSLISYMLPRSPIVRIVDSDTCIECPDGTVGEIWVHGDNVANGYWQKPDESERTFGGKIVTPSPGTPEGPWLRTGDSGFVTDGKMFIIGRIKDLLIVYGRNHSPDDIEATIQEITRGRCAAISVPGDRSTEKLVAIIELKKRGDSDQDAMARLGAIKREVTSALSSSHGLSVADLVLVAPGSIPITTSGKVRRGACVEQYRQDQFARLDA

[12] = target: T3, Heat shock factor protein 1 (Mus musculus, UniProt P38532); test: decrease of HSF1-responsive luciferase luminescence – cell-based, NIH3T3, dose retest, confirmation (AID 2382); format: functional;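 note: NIH3T3 fibroblasts with HSF1-driven luciferase reporter stressed by proteasome inhibitor MG132; luminescence from HSF1-driven luciferase expression after 8 hours of MG132 stress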
T3 sequence (P38532 whole entry): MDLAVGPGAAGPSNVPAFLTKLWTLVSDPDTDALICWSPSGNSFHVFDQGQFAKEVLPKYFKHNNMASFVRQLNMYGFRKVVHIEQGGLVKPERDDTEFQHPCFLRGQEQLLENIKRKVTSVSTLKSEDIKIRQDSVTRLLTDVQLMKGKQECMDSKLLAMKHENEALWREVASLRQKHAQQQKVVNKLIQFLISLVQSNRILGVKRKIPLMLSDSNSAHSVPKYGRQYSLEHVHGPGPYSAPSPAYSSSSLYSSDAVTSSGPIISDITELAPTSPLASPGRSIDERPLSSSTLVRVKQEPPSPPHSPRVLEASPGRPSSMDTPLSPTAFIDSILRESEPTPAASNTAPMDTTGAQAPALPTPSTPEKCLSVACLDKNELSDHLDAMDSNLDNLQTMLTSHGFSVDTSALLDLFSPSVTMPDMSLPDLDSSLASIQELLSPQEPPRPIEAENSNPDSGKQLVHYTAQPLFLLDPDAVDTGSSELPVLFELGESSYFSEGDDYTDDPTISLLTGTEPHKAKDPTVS

[13] = target: T4, Calpain-2 catalytic subunit (Sus scrofa, UniProt P43367); test: m-calpain protease blockers, concentration series – biochemical, fluorogenic peptide substrate, dose response (AID 1420); format: functional
T4 sequence (P43367 whole entry): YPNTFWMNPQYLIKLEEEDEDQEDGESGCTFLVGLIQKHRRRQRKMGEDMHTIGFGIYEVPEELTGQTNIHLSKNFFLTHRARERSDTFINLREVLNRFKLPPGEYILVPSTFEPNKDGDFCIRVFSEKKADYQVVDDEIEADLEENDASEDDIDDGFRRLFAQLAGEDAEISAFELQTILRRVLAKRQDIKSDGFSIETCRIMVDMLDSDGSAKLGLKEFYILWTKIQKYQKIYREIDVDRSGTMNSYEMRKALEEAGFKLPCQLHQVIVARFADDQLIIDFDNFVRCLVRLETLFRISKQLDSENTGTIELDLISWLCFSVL

cells [14] = format: functional, cell-based
cells [15] = format: functional, cell-based; remark: listed apart in the source
Aminopeptidase N = target: T5, Aminopeptidase N (Plasmodium falciparum FcB1/Columbia, UniProt O96935); test: malaria alanyl aminopeptidase activity blockers – biochemical, fluorogenic H-Leu-NHMec substrate, 1536-well (AID 1445); set-up: species or system Plasmodium falciparum 3D7, 3D7
T5 sequence (O96935 whole entry): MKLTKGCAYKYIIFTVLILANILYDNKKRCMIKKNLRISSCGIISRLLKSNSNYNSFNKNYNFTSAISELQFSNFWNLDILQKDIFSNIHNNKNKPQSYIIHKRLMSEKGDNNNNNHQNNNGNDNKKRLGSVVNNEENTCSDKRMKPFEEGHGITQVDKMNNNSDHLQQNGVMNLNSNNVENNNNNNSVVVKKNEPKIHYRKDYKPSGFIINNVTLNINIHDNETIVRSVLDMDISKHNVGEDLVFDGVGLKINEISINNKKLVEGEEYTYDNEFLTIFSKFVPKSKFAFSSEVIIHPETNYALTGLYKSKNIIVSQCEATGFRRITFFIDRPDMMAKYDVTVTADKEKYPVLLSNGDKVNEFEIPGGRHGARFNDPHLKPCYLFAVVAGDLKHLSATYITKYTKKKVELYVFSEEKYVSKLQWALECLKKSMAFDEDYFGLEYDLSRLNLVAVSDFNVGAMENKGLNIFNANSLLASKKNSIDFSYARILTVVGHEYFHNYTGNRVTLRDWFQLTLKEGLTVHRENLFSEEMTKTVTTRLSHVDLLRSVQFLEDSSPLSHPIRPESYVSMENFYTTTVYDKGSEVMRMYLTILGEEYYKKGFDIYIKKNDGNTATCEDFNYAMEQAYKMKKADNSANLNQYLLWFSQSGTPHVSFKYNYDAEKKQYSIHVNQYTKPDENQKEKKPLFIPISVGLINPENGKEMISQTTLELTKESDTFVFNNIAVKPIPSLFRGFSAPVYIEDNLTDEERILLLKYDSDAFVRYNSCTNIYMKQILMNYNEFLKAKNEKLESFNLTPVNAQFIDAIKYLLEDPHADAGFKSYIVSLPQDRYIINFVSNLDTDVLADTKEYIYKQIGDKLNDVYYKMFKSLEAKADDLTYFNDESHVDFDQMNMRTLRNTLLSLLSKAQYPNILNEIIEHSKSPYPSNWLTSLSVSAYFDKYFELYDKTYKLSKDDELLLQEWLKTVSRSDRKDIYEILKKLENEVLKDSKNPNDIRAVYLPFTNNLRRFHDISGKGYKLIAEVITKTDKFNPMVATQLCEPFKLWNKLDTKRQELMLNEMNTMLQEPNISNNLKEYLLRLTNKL

[16] = Trypanosoma cruzi growth suppression in host cells – NIH3T3 host cells, beta-gal luminescence, confirmation (AID 2044); format: functional, cell-based;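 note: intracellular parasites grown in NIH/3T3 mouse fibroblasts as host cells; luminescent beta-galactosidase reporter signal from transgenic T. cruzi replicating inside host cells; inhibitors lower the luminescence signal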
[17] = NIH3T3 cell viability loss – ATP luminescence, mouse fibroblasts, counter-screen, dose response (AID 2010); format: functional, cell-based;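 note: cells exposed to compound for about 90 hours before reading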
[18] = target: T6, DNA repair protein RAD52 homolog (Homo sapiens, UniProt P43351); format: functional, biochemical
T6 sequence (P43351 whole entry): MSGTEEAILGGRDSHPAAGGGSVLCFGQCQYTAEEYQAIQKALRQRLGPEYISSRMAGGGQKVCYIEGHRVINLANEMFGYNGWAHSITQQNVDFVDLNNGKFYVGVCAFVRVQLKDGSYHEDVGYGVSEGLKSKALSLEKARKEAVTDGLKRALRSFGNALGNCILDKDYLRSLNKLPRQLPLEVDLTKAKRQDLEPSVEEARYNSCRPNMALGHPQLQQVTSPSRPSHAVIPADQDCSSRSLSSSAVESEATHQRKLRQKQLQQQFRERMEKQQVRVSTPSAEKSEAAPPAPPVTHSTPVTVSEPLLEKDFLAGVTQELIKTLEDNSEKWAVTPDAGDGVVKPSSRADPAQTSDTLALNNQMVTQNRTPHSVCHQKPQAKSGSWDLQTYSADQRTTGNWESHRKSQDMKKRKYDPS

[19] = target: T7, Small ubiquitin-related modifier 1 (Homo sapiens, UniProt P63165); test: SUMO1 protein interaction blockers, potency – biochemical, fluorescence polarization, uHTS hits, dose response (AID 624382); format: functional; conditions: read-out: IC50_Mean
[20] = target: T7, Small ubiquitin-related modifier 1; test: SUMO1 protein-protein binding blockers, potency – biochemical, FRET, dose response (AID 624383); format: functional; conditions: read-out: IC50_Mean

T7 sequence (P63165 whole entry): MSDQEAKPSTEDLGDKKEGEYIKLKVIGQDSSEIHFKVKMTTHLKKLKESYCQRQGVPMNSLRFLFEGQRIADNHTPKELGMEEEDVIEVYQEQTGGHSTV
Sequence of SWI/SNF-related matrix-associated actin-dependent regulator of chromatin subfamily A member 2 (P51531 whole entry): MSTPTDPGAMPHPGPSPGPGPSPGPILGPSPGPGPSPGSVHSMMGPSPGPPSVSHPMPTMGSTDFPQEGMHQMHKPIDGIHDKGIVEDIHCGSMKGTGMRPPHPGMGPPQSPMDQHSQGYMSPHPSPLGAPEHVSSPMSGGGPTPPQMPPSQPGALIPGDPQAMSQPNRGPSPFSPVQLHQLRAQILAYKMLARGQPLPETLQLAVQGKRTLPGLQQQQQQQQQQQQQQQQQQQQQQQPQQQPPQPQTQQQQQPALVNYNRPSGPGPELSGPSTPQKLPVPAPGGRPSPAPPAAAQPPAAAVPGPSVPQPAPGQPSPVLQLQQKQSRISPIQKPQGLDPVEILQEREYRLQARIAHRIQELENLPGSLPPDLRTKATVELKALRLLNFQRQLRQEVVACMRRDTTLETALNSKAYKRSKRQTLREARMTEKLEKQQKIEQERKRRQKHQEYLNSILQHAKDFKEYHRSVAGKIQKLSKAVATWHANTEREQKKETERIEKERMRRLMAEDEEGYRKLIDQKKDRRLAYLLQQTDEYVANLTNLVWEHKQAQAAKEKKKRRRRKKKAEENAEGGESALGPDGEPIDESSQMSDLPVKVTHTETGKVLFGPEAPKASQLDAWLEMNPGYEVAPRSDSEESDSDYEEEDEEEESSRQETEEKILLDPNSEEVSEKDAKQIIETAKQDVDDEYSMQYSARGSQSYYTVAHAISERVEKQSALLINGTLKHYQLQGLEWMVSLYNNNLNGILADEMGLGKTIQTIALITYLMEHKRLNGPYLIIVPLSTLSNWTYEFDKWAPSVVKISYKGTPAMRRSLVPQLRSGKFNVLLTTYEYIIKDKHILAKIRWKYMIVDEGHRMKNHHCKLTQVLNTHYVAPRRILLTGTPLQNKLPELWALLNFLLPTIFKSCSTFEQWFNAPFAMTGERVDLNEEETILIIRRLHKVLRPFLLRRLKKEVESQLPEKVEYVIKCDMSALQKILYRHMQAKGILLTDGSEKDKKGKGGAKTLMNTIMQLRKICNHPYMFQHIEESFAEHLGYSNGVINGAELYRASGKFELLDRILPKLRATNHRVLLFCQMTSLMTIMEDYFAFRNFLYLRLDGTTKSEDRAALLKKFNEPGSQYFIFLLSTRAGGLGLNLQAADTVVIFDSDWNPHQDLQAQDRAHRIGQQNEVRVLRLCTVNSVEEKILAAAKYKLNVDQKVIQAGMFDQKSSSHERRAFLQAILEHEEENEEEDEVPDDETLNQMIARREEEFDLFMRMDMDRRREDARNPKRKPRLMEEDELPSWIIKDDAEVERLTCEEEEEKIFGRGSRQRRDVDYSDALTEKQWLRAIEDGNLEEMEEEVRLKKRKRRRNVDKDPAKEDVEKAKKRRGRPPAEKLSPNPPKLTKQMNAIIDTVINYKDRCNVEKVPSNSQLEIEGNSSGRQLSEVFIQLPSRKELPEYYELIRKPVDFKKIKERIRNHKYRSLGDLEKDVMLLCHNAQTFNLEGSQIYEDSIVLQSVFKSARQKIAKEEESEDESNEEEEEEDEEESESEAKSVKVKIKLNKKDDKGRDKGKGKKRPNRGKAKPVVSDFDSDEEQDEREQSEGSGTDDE

Structure (SMILES): COc1cc(CCC(=O)OCC(=O)Nc2sccc2C(N)=O)cc(OC)c1OC
- IC50 (Galanin receptor type 3): 1.55 µM (active)
- EC50 (cells [1]): > 29.9 µM (inactive)

Structure (SMILES): NC(c1csc(NC(=O)Nc2cccc(Cl)c2)n1)c1ccccc1Cl (stereo not drawn)
- AC50 [2]: 11.9 µM (active)
- AC50 [3]: 16.4 µM (active)
- AC50 [4]: 16.2 µM (active)
- AC50 [5]: 29.4 µM (active)
- AC50 [6]: 28.5 µM (active)

Structure (SMILES): COC(=O)C1=C(C)N(Cc2ccccc2)C(=S)N[C@H]1c1cccc(C(F)(F)F)c1
- AC50 (HeLa): > 52 µM (inactive)

Structure (SMILES): Cc1ccnc(Nc2nc3ccccc3s2)n1
- EC50 [7]: > 91.2 µM (inactive)
- EC50 [8]: > 91.2 µM (inactive)

Structure (SMILES): C[C@@H]1CN([C@@H](C)CO)S(=O)(=O)c2ccc(-c3ccc(C(=O)N(C)C)cc3)cc2O[C@@H]1CN(C)C(=O)C1CCC1
- AC50 [9]: 13.8 µM (active)
- AC50 [10]: 516 nM (active)

Structure (SMILES): CCc1cccc2c(C(=O)COC(=O)c3cccc(S(=O)(=O)N(C)C4CCCCC4)c3)c[nH]c12
- AC50 [11]: 30.6 µM (active)

Structure (SMILES): N#Cc1c(N)nc2c3c(sc(=N)c2c1N)NC(=O)CC3c1ccccc1 (stereo not drawn)
- EC50 [12]: > 195 µM (not active)
- IC50 (Galanin receptor type 3): > 29.9 µM (inactive)
- EC50 (cells [1]): > 29.9 µM (inactive)

Structure (SMILES): O=C(NCCc1ccccc1)c1cnc2n(c1=O)CCS2
- IC50 [13]: 24.2 µM (not active)
- IC50 (cells [14]): > 29.9 µM (inactive)
- EC50 (cells [15]): > 29.9 µM (inactive)

Structure (SMILES): Cc1nc(NC(=N)N)nc2c(C)cccc12
- IC50 (Aminopeptidase N): 47.6 µM (active)
- EC50 [16]: 371 nM (active)
- EC50 [17]: > 60 µM (not active)
- EC50 [7]: > 10.1 µM (inactive)
- EC50 [8]: > 91.1 µM (inactive)
- AC50 [18]: 1.4 µM (active)

Structure (SMILES): Cc1cc(C)nc(NS(=O)(=O)c2ccc(NC(=S)NC(=O)C3CCCC3)cc2)n1
- AC50 [9]: 11.1 µM (active)

Structure (SMILES): Cn1cnnc1SCC(=O)Nc1ccc(OCc2ccccc2)cc1
- IC50 [19]: > 66.6 µM (inactive)
- IC50 [20]: 32 µM (inactive)

Structure (SMILES): O=C(CCC(=O)Nc1ccc(F)cc1)N/N=C/c1c[nH]c2ccccc12
- AC50 [11]: 49 µM (active)

Structure (SMILES): COc1ccc(Cn2nnnc2C(c2cc3cccc(C)c3nc2O)N2CCOCC2)cc1 (stereo not drawn)
- AC50 [2]: 6.52 µM (active)
- AC50 [4]: 5.44 µM (active)
- AC50 [5]: 7.1 µM (active)
- AC50 [6]: 6.17 µM (active)
